Holding throughout (test): NCI-60 cell line screen, 48 h
In assay [1] the test system is OVCAR-8 ovarian.
The subject of assay [2] is IGROV1 ovarian.
Assay [3] deals with MOLT-4 leukemia.
The subject of assay [4] is HCT-116 colon.
In assay [5] the test system is KM12 colon.
In assay [6] the test system is UACC-257 melanoma.
The subject of assay [7] is RXF 393 renal.
Assay [8] deals with MALME-3M melanoma.
In assay [9] the test system is CAKI-1 renal.
Assay [10] relates to HOP-62 NSCLC.

From PubChem BioAssay (NCI) come the findings set out here.

Structures are written as SMILES.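 Results reflect a 48-hour exposure of cells in 96-well plates to compound at five concentrations. GI50 is the concentration that inhibits growth by half. TGI marks complete inhibition of growth.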

As to `COc1cc(-c2oc3c(OC)c(O)cc(O)c3c(=O)c2OC)ccc1O`, the TGI in assay [1] was above 100 µM; in [2] it was 15.3 µM; in assay [3], 29.4 µM; in assay [4], above 100 µM; in assay [5] it was above 100 µM; in [6], above 94.2 µM. Besides, the values for the TGI in assay [7], in assay [8] and in [9] were 51.5 µM, 97.5 µM and 51.5 µM, respectively.

On to `COC(=O)c1nc(N)nc(C(=O)OC)c1C(=O)c1ccccc1`, for which the TGI in assay [1], in assay [2], in assay [3], in assay [4], in assay [5] and in assay [6] was above 100 µM throughout. Besides, the TGI in [7] and in assay [8] was above 100 µM throughout.

`O=C1NC(SCc2ccc(F)cc2)=N/C1=C/c1cccc(OCc2ccc(Cl)cc2)c1`: the GI50 is 18.8 µM in assay [1]; 4.91 µM in assay [2]; 31.6 µM in assay [3]; 3.27 µM in [4]; above 100 µM in assay [5]; above 100 µM in assay [6]. Also, the GI50 in [7] is 9.22 µM; in [8] it was 26.5 µM. Moreover, the TGI is above 100 µM in [1]; above 100 µM in assay [2]; above 100 µM in assay [3]; 14.9 µM in [4]; above 100 µM in [5]; above 100 µM in [6]. The values for the TGI in assay [7] and in assay [8] were 48.9 µM and above 100 µM, respectively.

Turning to `COC1OC(C(C)O)C2OC(C)(C)OC12` (stereo not drawn), the TGI in assay [1], in assay [2], in assay [10], in assay [3], in assay [4] and in assay [5] was above 100 µM each time. Also, the TGI in [6] and in [9] was above 100 µM in each case.

Take `CC1=C(C(=O)Nc2ccccc2C)C(c2ccccc2C)C(C(=O)Nc2ccccc2C)=C(C)N1`: the TGI in assay [1] was 36.8 µM; in assay [2], 40.1 µM; in assay [10], 62.8 µM; in assay [3], above 10 µM; in [4], 50.4 µM; in assay [5], 37.8 µM. The TGI in assay [6] came to 72.6 µM; in [7], 26.2 µM; in assay [8], 38.2 µM.

Consider `c1ccc(/C(=N\Nc2ccc3ccccc3n2)c2ccccn2)cc1`, for which the GI50 in assay [1] was 0.456 µM; in assay [2], 0.433 µM; in assay [10] it was 1.21 µM; in assay [3], 0.252 µM; in [4], 0.436 µM; in [5], 0.989 µM. The GI50 in assay [6] is 0.33 µM; in [8], 0.546 µM; in assay [9], 0.0927 µM. Further, the TGI in [1] is 17.4 µM; in assay [2], 3.23 µM; in [10], 15.9 µM; in assay [3] it was 0.69 µM; in assay [4] it was 5.62 µM; in assay [5], 13.5 µM. The TGI came to 3.48 µM in [6], 5.76 µM in [8] and 3.95 µM in [9].

`CC(=O)n1c(-c2ccc(Cl)c(Cl)c2)cn(-c2ccc(Cl)cc2)c1=O`: the GI50 in [1] is 23.1 µM; in assay [10] it was 20.4 µM; in assay [3], 23.3 µM; in assay [4], 19.6 µM; in [5], 67 µM; in assay [6], 22.4 µM. Besides, the GI50 is 11.4 µM in assay [7], 32 µM in assay [8] and 20.8 µM in [9]. For the same compound, the TGI in assay [1] was 76.5 µM; in [10] it was 43.8 µM; in [3], 90.2 µM; in assay [4] it was above 100 µM; in [5], above 100 µM; in [6], 66.8 µM. The TGI in assay [7] was 27 µM; in assay [8], above 100 µM; in [9], 43.9 µM.

On to `O=C(O)c1cc(=O)c2cc(C(=O)c3cccs3)c(Cl)c(Cl)c2o1`, for which the TGI in assay [1], in assay [2], in [10], in assay [3], in assay [5] and in assay [6] was above 100 µM each time. The TGI in [8] and in [9] was above 100 µM each time.

Turning to `O=CN1N=C(c2ccc(Nc3ccnc4cc(Cl)ccc34)cc2)CC1c1ccc(Cl)cc1` (stereo not drawn), the GI50 in assay [1] is 3.22 µM; in assay [2] it was 5.01 µM; in [10], 0.859 µM; in assay [3], 0.529 µM; in [4] it was 0.499 µM; in assay [5], 0.538 µM. The GI50 is above 100 µM in assay [6], 1.88 µM in [7] and 0.409 µM in assay [9]. For the same compound, the TGI in assay [1], in [2], in assay [10], in [3], in [4] and in assay [5] was above 100 µM in each case. The TGI in assay [6], in [7] and in assay [9] was above 100 µM in each case.

As to `CCCCCCCCCCCCCCCCCc1nnc(N)o1`, the TGI in [1], in assay [2], in [10], in [3], in assay [4] and in assay [5] was above 100 µM throughout. The TGI in assay [6], in assay [8] and in assay [9] was above 100 µM throughout.

For the compound `O=c1[nH]c2c(c3ccccc13)CCc1ccccc1-2`, the TGI in assay [1], in assay [2], in [3], in assay [4], in [5] and in assay [6] was above 100 µM in each case. The TGI in assay [7], in [8] and in [9] was above 100 µM each time.

Turning to `O=C1/C(=C\c2ccccc2)c2ccccc2N1/N=C\c1ccccc1`, the TGI in [1], in assay [2], in assay [10], in assay [3], in assay [4] and in [5] was above 100 µM throughout. Further, the TGI in [6], in assay [8] and in assay [9] was above 100 µM each time.

Turning to `Cc1cccc(N=C2NC(=O)C(CC(=O)Nc3ccccc3Cl)S2)c1` (stereo not drawn), the TGI in [1], in [2], in assay [3], in assay [4], in [6] and in assay [7] was above 100 µM each time. For the same compound, the TGI in [8] and in assay [9] was above 100 µM throughout.

Take `O=C1NN=CN2C(=O)CCC12` (stereo not drawn): the TGI in assay [1], in assay [2], in assay [10], in [3], in assay [4] and in [5] was above 100 µM throughout. For the same compound, the TGI in [6], in assay [7] and in assay [9] was above 100 µM throughout.

Take `COC1C(O)C(C)OC(O[C@@H]2C[C@H]3CC[C@@H]4[C@H](CC[C@]5(C)[C@@H](C6=CC(=O)OC6)CC[C@]45O)[C@@]3(C)[C@H](O)C2)C1O` (stereo partly drawn): the TGI was 0.268 µM in [1]; 0.0362 µM in assay [10]; below 0.0273 µM in assay [3]; 0.0994 µM in [4]; 1.8 µM in assay [5]; 1.07 µM in [6]. Further, the figures for the TGI in [7], in assay [8] and in [9] were 0.0363 µM, 0.119 µM and 0.0215 µM, respectively.

Turning to `NNC(=S)N/N=C(/C(=O)Nc1ccc([N+](=O)[O-])cc1)c1nc2ccc([N+](=O)[O-])cc2[nH]c1=O`, the TGI in assay [1], in assay [2], in assay [3], in assay [4], in assay [5] and in [6] was above 100 µM each time. The TGI in assay [8] and in assay [9] was above 100 µM each time.

Turning to `C=C(C)C(=O)O[C@H]1CC2=CC(CC(C)=C[C@H]3OC(=O)C(=C)C13)OC2=O` (stereo partly drawn), the TGI in assay [1] is above 100 µM; in assay [2], above 100 µM; in assay [3] it was 40.7 µM; in [4], 24.2 µM; in assay [5], 47.1 µM; in assay [6], 96.3 µM. The TGI in [8] was 40.7 µM; in [9], 34.4 µM.

Regarding `O=c1cc(-c2ccc(O)cc2)oc2cc(O)cc(O)c12`, the TGI is 80 µM in assay [2]; above 100 µM in assay [10]; 88.4 µM in assay [3]; above 100 µM in assay [4]; 82.9 µM in [5]; 73.9 µM in assay [6]. Further, the TGI in assay [8] worked out at 88.3 µM.

Consider `COc1cc2c(Cc3cc(OCc4ccccc4)ccc3N)nccc2c(OC)c1OC`, for which the TGI in assay [1], in assay [2], in assay [10], in [3], in [4] and in [5] was above 10 µM each time. The TGI in [6], in [7] and in assay [8] was above 10 µM each time.

With `CC1CC(=O)c2c(ccc3c2C(=O)c2cccc(O)c2C3=O)C1` (stereo not drawn), the TGI in assay [1] came out at 11.1 µM; in assay [3] it was 9.57 µM; in [4], 20.1 µM; in [5], 26.7 µM; in [6], 19.2 µM; in [8], 19.8 µM.
